One data set deals with GLP-1 Receptor (Homo sapiens, UniProt P43220). In words: Functional assay, cAMP induction (luciferase reporter, HEK293) at GLP-1 receptor. Type of data set: cell-based. For orientation: Reporter assays use an easily measured gene product as a stand-in for the process of interest.
Data set [1] addresses T1, Glucagon Receptor (Homo sapiens, UniProt P47871). The data set can be described thus: cAMP inhibition: antagonism of glucagon-induced cAMP at glucagon receptor. Also noted: expressed in transfected cells; host or cells: HEK293. The format is cell-based.
A short description of data set [2]: Glucagon solubility assay. As to conditions: Table 10.
In data set [3] the target is T1, Glucagon Receptor. The data set can be described thus: Glucagon receptor binding assay (scintillation proximity competition binding). (Scintillation proximity formats need no separation of bound from free tracer.)
The mark [4] stands for this setting: GLP-1 agonism EC50 (nM), Table 17.
The mark [5] stands for this setting: Glucagon antagonism IC50 (nM, inhibit 0.2-0.8 nM glucagon), Table 17.
Where [6] appears, read: Table 7, average ±STD, at least three experiments.
Where [7] appears, read: read-out: IC50 (nM) (Receptor binding), Table 12.

Values joined by “and” are separate entries in the source; they are usually repeats but may differ in a detail not shown here. Equal entries are not always repeated. Where two headings read alike, the source gives them in different places. Bridge positions count the residues as written; N and C are the ends. Square brackets hold non-standard residues; d marks the D form. Side chains are listed from the residue outwards. Ends that are not written are not given here. Peptide text beside a SMILES is read from it. PhLac = O=C(O)[C@@H](O)Cc1ccccc1

GLP-1 Receptor, sequence (P43220 24-463): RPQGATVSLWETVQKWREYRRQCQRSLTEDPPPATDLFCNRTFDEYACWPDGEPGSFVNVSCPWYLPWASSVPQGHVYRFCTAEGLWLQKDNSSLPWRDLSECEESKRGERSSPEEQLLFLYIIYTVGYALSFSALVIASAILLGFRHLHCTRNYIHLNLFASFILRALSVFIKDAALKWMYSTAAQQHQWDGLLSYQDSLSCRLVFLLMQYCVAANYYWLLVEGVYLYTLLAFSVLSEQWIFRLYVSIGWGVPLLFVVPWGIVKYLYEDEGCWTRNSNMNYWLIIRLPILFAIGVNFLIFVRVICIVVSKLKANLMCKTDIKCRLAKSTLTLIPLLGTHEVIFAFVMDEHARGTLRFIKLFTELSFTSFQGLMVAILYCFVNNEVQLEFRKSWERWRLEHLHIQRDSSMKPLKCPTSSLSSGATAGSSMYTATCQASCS
T1 sequence (P47871 26-477): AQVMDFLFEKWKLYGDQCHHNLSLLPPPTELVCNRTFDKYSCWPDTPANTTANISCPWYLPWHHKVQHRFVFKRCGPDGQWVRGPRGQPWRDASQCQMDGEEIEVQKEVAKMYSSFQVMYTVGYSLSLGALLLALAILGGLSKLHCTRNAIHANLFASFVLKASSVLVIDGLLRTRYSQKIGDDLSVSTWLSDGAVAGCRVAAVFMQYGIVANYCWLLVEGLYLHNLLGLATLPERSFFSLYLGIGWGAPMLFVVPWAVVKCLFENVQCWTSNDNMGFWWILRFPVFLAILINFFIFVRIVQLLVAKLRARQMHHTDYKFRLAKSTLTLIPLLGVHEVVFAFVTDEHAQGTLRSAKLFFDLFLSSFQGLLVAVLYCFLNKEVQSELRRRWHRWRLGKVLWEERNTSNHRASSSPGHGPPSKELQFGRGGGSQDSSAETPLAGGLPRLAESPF

As to `CSCC[C@H](NC(=O)[C@H](CC(C)C)NC(=O)[C@H](Cc1c[nH]c2ccccc12)NC(=O)[C@H](CCC(N)=O)NC(=O)[C@@H](NC(=O)[C@H](Cc1ccccc1)NC(=O)[C@H](CC(=O)O)NC(=O)[C@@H]1CCCCNC(=O)CC[C@H](NC(=O)[C@H](CC(=O)O)NC(=O)[C@H](CC(C)C)NC(=O)[C@H](Cc2ccc(O)cc2)NC(=O)[C@H](CCCCN)NC(=O)[C@H](CO)NC(=O)[C@H](Cc2ccc(O)cc2)NC(=O)[C@H](CC(=O)O)NC(=O)[C@H](CO)NC(=O)[C@@H](NC(=O)[C@@H](O)Cc2ccccc2)[C@@H](C)O)C(=O)N[C@@H](CCCNC(=N)N)C(=O)N[C@@H](CCCNC(=N)N)C(=O)N[C@@H](C)C(=O)N1)C(C)C)C(=O)N[C@@H](CC(=O)O)C(=O)N[C@H](C(N)=O)[C@@H](C)O` [[PLA6, D9, E16K20(lactam), D28]G(6-29)] (H-[PhLac]TSDYSKYLDERRAKDFVQWLMDT-NH2; lactam 11-15), the EC50 (usually the concentration giving half of the maximal effect) was 5 to 25 nM on GLP-1 Receptor (GLP-1 EC50 (nM), Table 14); 6.9 nM and 4.2 nM on GLP-1 Receptor (setting [4]); 10.6 ± 0.97 nM on GLP-1 Receptor (GLP-1 agonism EC50 (nM), Table 19); 5 to 28 nM on GLP-1 Receptor (GLP-1 agonism EC50 (nM), Table 21). For the same compound, the IC50 (in general, the point on the concentration scale where inhibition reaches its midpoint) on Glucagon Receptor [1] (Glucagon IC50 (nM), Table 14) is 10 to 30 nM; at Glucagon Receptor [1] (Glucagon antagonism IC50(nM) (inhibit 0.2-0.8 nM glucagon), Table 21), 5 to 27 nM; against Glucagon Receptor [1] (Glucagon antagonism IC50 (nM, inhibit 0.4 nM glucagon), Table 22), 5 to 27 nM; against Glucagon Receptor [1] (Glucagon antagonism IC50 (nM, inhibit 0.8 nM glucagon), Table 19), 13.7 ± 1.2 nM; against Glucagon Receptor [1] (setting [5]) it was 11.7 ± 2.8 nM; against Glucagon Receptor [1] (Glucagon antagonism IC50 (nM, inhibit 0.2-0.8 nM glucagon), Table 18) it was 5.5 nM.
Turning to `CSCC[C@H](NC(=O)[C@H](CC(C)C)NC(=O)[C@H](Cc1c[nH]c2ccccc12)NC(=O)[C@H](CCC(N)=O)NC(=O)[C@@H](NC(=O)[C@H](Cc1ccccc1)NC(=O)[C@H](CC(=O)O)NC(=O)[C@H](CCC(N)=O)NC(=O)[C@H](C)NC(=O)[C@H](CCCNC(=N)N)NC(=O)[C@H](CCCNC(=N)N)NC(=O)[C@@H]1CCC(=O)NCCCC[C@H](NC(=O)[C@H](CO)NC(=O)[C@H](Cc2ccc(O)cc2)NC(=O)[C@H](CC(=O)O)NC(=O)[C@H](CO)NC(=O)[C@@H](NC(=O)[C@@H](O)Cc2ccccc2)[C@@H](C)O)C(=O)N[C@@H](Cc2ccc(O)cc2)C(=O)N[C@@H](CC(C)C)C(=O)N[C@@H](CC(=O)O)C(=O)N1)C(C)C)C(=O)N[C@@H](CC(=O)O)C(=O)N[C@H](C(N)=O)[C@@H](C)O` [[PLA6, D9, K12E16(Lactam), D28]G(6-29)] (H-[PhLac]TSDYSKYLDERRAQDFVQWLMDT-NH2; lactam 7-11), at GLP-1 Receptor (setting [4]), the EC50 worked out at 38.5 ± 7.6 nM. The IC50 against Glucagon Receptor [1] (setting [5]) turned out to be 58.3 ± 3.3 nM.
The compound `CSCC[C@H](NC(=O)[C@H](CC(C)C)NC(=O)[C@H](Cc1c[nH]c2ccccc12)NC(=O)[C@H](CCC(N)=O)NC(=O)[C@@H](NC(=O)[C@H](Cc1ccccc1)NC(=O)[C@H](CC(=O)O)NC(=O)[C@H](CCC(N)=O)NC(=O)[C@H](C)NC(=O)[C@H](CCCNC(=N)N)NC(=O)[C@H](CCCNC(=N)N)NC(=O)[C@H](CCC(=O)O)NC(=O)[C@H](CC(=O)O)NC(=O)[C@H](CC(C)C)NC(=O)[C@H](Cc1ccc(O)cc1)NC(=O)[C@H](CCCCN)NC(=O)[C@H](CO)NC(=O)[C@H](Cc1ccc(O)cc1)NC(=O)[C@H](CCC(=O)O)NC(=O)[C@H](CO)NC(=O)[C@@H](NC(=O)[C@@H](O)Cc1ccccc1)[C@@H](C)O)C(C)C)C(=O)N[C@@H](CC(N)=O)C(=O)N[C@H](C(=O)NCC(=O)N1CCC[C@H]1C(=O)N[C@@H](CO)C(=O)N[C@@H](CO)C(=O)NCC(=O)N[C@@H](C)C(=O)N1CCC[C@H]1C(=O)N1CCC[C@H]1C(=O)N1CCC[C@H]1C(=O)N[C@@H](CO)C(N)=O)[C@@H](C)O` [[PLA6, E9, E16]G(6-39)] (H-[PhLac]TSEYSKYLDERRAQDFVQWLMNTGPSSGAPPPS-NH2) displayed an EC50 at GLP-1 Receptor (GLP-1 agonism EC50 (nM), Table 16) of 1760 nM. Further, at Glucagon Receptor [1] (Glucagon antagonism IC50 (nM, inhibit 0.2-0.8 nM glucagon), Table 16, combined results of three assays), the IC50 is 58.1 nM.
Regarding `CSCC[C@H](NC(=O)[C@H](CC(C)C)NC(=O)[C@H](Cc1c[nH]c2ccccc12)NC(=O)[C@H](CCC(N)=O)NC(=O)[C@@H](NC(=O)[C@H](Cc1ccccc1)NC(=O)[C@H](CC(=O)O)NC(=O)[C@H](CCC(N)=O)NC(=O)[C@H](C)NC(=O)[C@H](CCCNC(=N)N)NC(=O)[C@H](CCCNC(=N)N)NC(=O)[C@H](CO)NC(=O)[C@H](CC(=O)O)NC(=O)[C@H](CC(C)C)NC(=O)[C@H](Cc1ccc(O)cc1)NC(=O)[C@H](CCCCN)NC(=O)[C@H](CO)NC(=O)[C@H](Cc1ccc(O)cc1)NC(=O)[C@H](CC(=O)O)NC(=O)[C@H](CO)NC(=O)[C@@H](NC(=O)[C@@H](O)Cc1ccccc1)[C@@H](C)O)C(C)C)C(=O)N[C@@H](CC(=O)O)C(=O)N[C@H](C(N)=O)[C@@H](C)O` [[PLA^6, D^9, D^28] Glucagon(aa6-29)-NH2], the “Solubility (%, pH 6-8)” value in data set [2] amounted to 100%.
On the same count and under the same terms, the result for `CSCC[C@H](NC(=O)[C@H](CC(C)C)NC(=O)[C@H](Cc1c[nH]c2ccccc12)NC(=O)[C@H](CCC(N)=O)NC(=O)[C@@H](NC(=O)[C@H](Cc1ccccc1)NC(=O)[C@H](CC(=O)O)NC(=O)[C@H](CCC(N)=O)NC(=O)[C@H](C)NC(=O)[C@H](CCCNC(=N)N)NC(=O)[C@H](CCCNC(=N)N)NC(=O)[C@H](CO)NC(=O)[C@H](CC(=O)O)NC(=O)[C@H](CC(C)C)NC(=O)[C@H](Cc1ccc(O)cc1)NC(=O)[C@H](CCCCN)NC(=O)[C@H](CO)NC(=O)[C@H](Cc1ccc(O)cc1)NC(=O)[C@H](CC(=O)O)NC(=O)[C@H](CO)NC(=O)[C@@H](NC(=O)[C@@H](O)Cc1ccccc1)[C@@H](C)O)C(C)C)C(=O)N[C@@H](CC(N)=O)C(=O)N[C@H](C(=O)O)[C@@H](C)O` [[PLA^6, D^9]Glucagon(aa6-29)-COOH] (H-[PhLac]TSDYSKYLDSRRAQDFVQWLMNT-OH) reads 96%.
For the compound `CSCC[C@H](NC(=O)[C@H](CC(C)C)NC(=O)[C@H](Cc1c[nH]c2ccccc12)NC(=O)[C@H](CCC(N)=O)NC(=O)[C@@H](NC(=O)[C@H](Cc1ccccc1)NC(=O)[C@H](CC(=O)O)NC(=O)[C@@H]1CCCCNC(=O)CC[C@H](NC(=O)[C@H](CC(=O)O)NC(=O)[C@H](CC(C)C)NC(=O)[C@H](Cc2ccc(O)cc2)NC(=O)[C@H](CCCCN)NC(=O)[C@H](CO)NC(=O)[C@H](Cc2ccc(O)cc2)NC(=O)[C@H](CC(=O)O)NC(=O)[C@H](CO)NC(=O)[C@@H](NC(=O)[C@H](Cc2ccccc2)OC(=O)[C@@H](NC(=O)CNC(=O)[C@H](CCC(N)=O)NC(=O)[C@@H](N)CO)[C@@H](C)O)[C@@H](C)O)C(=O)N[C@@H](CCCNC(=N)N)C(=O)N[C@@H](CCCNC(=N)N)C(=O)N[C@@H](C)C(=O)N1)C(C)C)C(=O)N[C@@H](CC(=O)O)C(=O)N[C@H](C(N)=O)[C@@H](C)O` [[S2Q3-O-PLA6, D9, E16K20(Lactam), D28] G(2-29)] (H-SQGT[PhLac]TSDYSKYLDERRAKDFVQWLMDT-NH2; lactam 15-19; N-terminus assumed), at GLP-1 Receptor (GLP-1 agonism EC50 (nM), Table 20), the EC50 came to 45.7 ± 12.3 nM. Further, the IC50 at Glucagon Receptor [1] (Glucagon antagonism IC50 (nM, inhibit 0.8 nM glucagon), Table 24) amounted to 20.8 ± 3.09 nM.
Consider “FTSEYSKYLDSRRAQDFVQWLMNT-NH2 [[Glu^9]Glucagon(aa6-29)-NH2]”, for which, on Glucagon Receptor [1], the “cAMP pA2” value amounted to 7.16 ± 0.27. In addition, the IC50 is 36.4 ± 5.23 nM on Glucagon Receptor [3] (setting [6]) and 36.4 ± 5.23 nM on Glucagon Receptor [3] (read-out: IC50 (nM) receptor binding, Table 9).
As for “GTFTSEYSKYLDSRRAQDFVQWLMNT-NH2 [[Glu^9]Glucagon(aa4-29)-NH2]”, the half-maximal inhibitory concentration (IC50) came out at 136 ± 17.8 nM on Glucagon Receptor [3] (setting [6]) and 136 nM on Glucagon Receptor [3] (read-out: Receptor Binding IC50, Table 4).
On to “[C^8(20kDaPEG), E^9]Glucagon(aa6-29)-NH2 (FTC(PEG 20 kDa)EYSKYLDSRRAQDFVQWLMNT-NH2)”, for which, in the data set with Glucagon Receptor [1] (Table 12), the “IC50 (nM) (cAMP, inhibit 0.2 mM Glucagon)” value is given as “no antagonism”. For the same compound, the IC50 with Glucagon Receptor [3] (setting [7]) was > 1000 nM.
For “[E^9, C^11(20kDaPEG)]Glucagon(aa6-29)-NH2 (FTSEYC(PEG 20 kDa)KYLDSRRAQDFVQWLMNT-NH2)” the same measures were “no antagonism” and > 1000 nM.
With “[E^9, C^24 (20kDaPEG)]Glucagon(aa6-29)-NH2 (FTSEYSKYLDSRRAQDFVC(PEG 20 kDa)WLMNT-NH2)”, in the data set with Glucagon Receptor [1] (Table 12), the “IC50 (nM) (cAMP, inhibit 0.2 mM Glucagon)” value is reported as “no antagonism”. Further, the IC50 with Glucagon Receptor [3] (setting [7]) is > 1000 nM; with Glucagon Receptor [3] (read-out: IC50 (nM) (Receptor binding), Table 12, listed as [Phe^6, E^9, C^24(20kDaPEG)]Glucagon(aa6-29)-NH2) it was > 10000 nM.
Consider “[K^5(CH2CH2S-20kDaPEG), E^9]Glucagon(aa5-29)-NH2 (K([CH2CH2S-PEG 20 kDa])FTSEYSKYLDSRRAQDFVQWLMNT-NH2)”, for which the “IC50 (nM) (cAMP, inhibit 0.2 mM Glucagon)” value in the data set with Glucagon Receptor [1] (Table 12) is listed as “no antagonism”. Also, the IC50 with Glucagon Receptor [3] (setting [7]) was > 10000 nM.
Regarding “[PLA6, E16K20(Lactam), C24(20 kDa), D28]G(6-29) ([PhLac]TSDYSKYLDERRAKDFVC(PEG 20 kDa)WLMDT-NH2; lactam 11-15)”, the EC50 in the data set with GLP-1 Receptor (read-out: GLP-1 agonism EC50, Table 21) was in the range of 450 to 1840 nM. In addition, in the data set with Glucagon Receptor [1] (read-out: Glucagon antagonism IC50(nM) (inhibit 0.2-0.8 nM glucagon)), the IC50 is 374 to 1460 nM.
For the compound “[d-Cys^5(20kDaPEG), E^9]Glucagon(aa5-29)-NH2 ([dC](PEG 20 kDa)FTSEYSKYLDSRRAQDFVQWLMNT-NH2)”, the IC50 with Glucagon Receptor [1] (read-out: IC50 (nM) (cAMP, inhibit 0.2 mM Glucagon), Table 12, inhibit 0.2 mM Glucagon) was 14800 nM; with Glucagon Receptor [3] (setting [7]), > 10000 nM.

Values taken from patent US8980830B2 (priority 2007, dated 2015).
